Results: patent US9957253B2, “Triaminopyrimidine compounds useful for preventing or treating malaria” (MMV MEDICINES FOR MALARIA VENTURE, priority 2014, dated 2018)
Structures can show the parent of a compound that is named as a salt. Where two headings read alike, the source gives them in different places.

Columns and labels:
human CYP 1A2 = biological target: T1, human CYP 1A2 (Homo sapiens, UniProt P05177); assay: Time dependent CYP inhibition assay, CYP 1A2; assay type: in vitro ADME
T1 sequence (P05177 1-516): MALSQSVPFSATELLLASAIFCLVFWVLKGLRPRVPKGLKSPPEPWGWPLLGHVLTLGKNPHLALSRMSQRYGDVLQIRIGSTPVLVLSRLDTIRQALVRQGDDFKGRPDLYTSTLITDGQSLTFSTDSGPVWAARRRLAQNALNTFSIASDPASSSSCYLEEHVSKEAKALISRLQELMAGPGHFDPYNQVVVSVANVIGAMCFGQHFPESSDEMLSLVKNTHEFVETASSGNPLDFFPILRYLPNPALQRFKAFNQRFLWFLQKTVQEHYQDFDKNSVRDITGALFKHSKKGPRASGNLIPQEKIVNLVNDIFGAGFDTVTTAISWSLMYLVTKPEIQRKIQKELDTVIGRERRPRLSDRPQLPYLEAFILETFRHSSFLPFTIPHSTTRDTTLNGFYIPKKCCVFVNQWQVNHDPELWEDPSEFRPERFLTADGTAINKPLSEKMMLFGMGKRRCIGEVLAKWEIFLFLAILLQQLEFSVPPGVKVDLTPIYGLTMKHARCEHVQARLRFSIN

human CYP 2C19 = biological target: T2, human CYP 2C19 (Homo sapiens, UniProt P33261); assay: CYP inhibition assay, CYP 2C19; assay type: in vitro ADME
T2 construct: Mixture of 180 μL of 20 mg/mL HLM and 90 μL of substrate cocktail solution; from tissue; host or cells: human liver microsomes (HLM)
T2 sequence (P33261 whole entry): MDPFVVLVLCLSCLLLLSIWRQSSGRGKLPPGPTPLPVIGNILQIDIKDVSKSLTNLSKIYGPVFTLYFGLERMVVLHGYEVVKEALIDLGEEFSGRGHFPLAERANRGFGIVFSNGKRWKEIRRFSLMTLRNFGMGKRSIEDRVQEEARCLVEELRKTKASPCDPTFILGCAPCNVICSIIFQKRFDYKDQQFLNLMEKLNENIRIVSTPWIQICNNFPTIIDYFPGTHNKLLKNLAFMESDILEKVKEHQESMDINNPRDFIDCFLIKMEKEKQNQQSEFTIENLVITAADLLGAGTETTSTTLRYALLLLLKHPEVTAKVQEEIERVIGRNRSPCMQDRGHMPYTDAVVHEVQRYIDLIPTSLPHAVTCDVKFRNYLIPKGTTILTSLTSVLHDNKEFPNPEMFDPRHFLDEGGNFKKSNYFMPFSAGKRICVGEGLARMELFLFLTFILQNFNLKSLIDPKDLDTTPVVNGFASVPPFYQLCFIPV
Method: (§1) This study was conducted using specific substrates for 5 major human CYP isozymes. These substrates were used as a cocktail (phenacetin, diclofenac, S-mephenytoin, bufuralol and midazolam which are predominantly metabolised by CYP 1A2, 2C9, 2C19, 2D6 and 3A4/5, respectively) at concentrations equivalent to their respective Km values. LC-MS-MS (MRM mode) was used to follow the formation of the CYP specific metabolites. A decrease in the formation of the metabolites in peak area to vehicle control was used to calculate the IC50 value. […] Test compound was used at 6 different concentrations ([…]) to estimate IC50.
(§2) The incubation was carried out in 96 deep well plates. Mixture of 180 μL of 20 mg/mL HLM and 90 μL of substrate cocktail solution was added to 15840 μL of phosphate buffer and 179 μL of this mixture was mixed with 1 μL of the test compound, inhibitor cocktail solution or vehicle in each well. The final concentration of DMSO:ACN in the assay mix was 0.3:0.7% v/v. The incubation plate was placed into the water bath and pre-warmed at 37° C. for 5 min before the reactions were started by the addition of 20 μL of 10 mmol/L NADPH solution in phosphate buffer. After the addition of NADPH, the incubation plate was incubated at 37° C. for a further 5 min. The reaction was quenched by the addition of 1 volume (200 μL) of cold ACN containing 3% formic acid and 40 nmol/L verapamil. The plates were kept on ice for 20 min and then centrifuged at 4000 rpm for 30 min to precipitate protein. The supernatant 180 μL was transferred to the analysis plate for LC/MS/MS analysis.

[1] = Prediction of human PK parameters (well stirred model); details: from human hepatocyte Clint and fu
Excerpt: Prediction of Human Pharmacokinetic (PK) Parameters Well stirred model was used for predicting human CL using human hepatocyte Clint and free fraction (fu) in human plasma. Liver blood flow rates, liver weights, hepatocellularity and in vitro in vivo correlation/extrapolation (IVIVC/E) templates routinely employed (Smith et al., Pharmacokinetics and Metabolism in Drug Design, Methods and Principles in Medicinal Chemistry Volume 13, 2004, Wiley-VCH, Weinheim, Germany) were used for prediction.

[2] = Pharmacokinetic studies (IVPK/POPK) in male Wistar rats; assay type: in vivo; details: Rat; for Oral ‘F’ / ½ life (PO PK): 5 mg/kg Examples 7 and 10, 10 mg/kg Example 13; for clearance / Vd: male, Wistar, IV bolus, 0.5 mg/kg Examples 7 and 10, 2 mg/kg Example 13; for clearance: read-out: CL blood; for Vd: read-out: Vss blood
Method: All in vivo studies were approved by the institutional animal ethics committee. Pharmacokinetics following IV bolus (IVPK) or oral administration (POPK) of compounds was determined in male Wistar rats or male Beagle dogs. For IVPK in rats, Example 7 and Example 10 were administered as solutions in 20% DMA, 80% phosphate-buffered saline and Example 13 was administered as a solution in 10% v/v NMP, 20% v/v DMA in saline. For POPK, Example 7 and Example 10 were administered as suspensions in 20% DMA, 80% phosphate buffered saline and Example 13 was administered as a suspension in 0.5% HPMC and 0.1% Tween 80 through an oral gavage. Example 13 was administered to dogs as a solution in 10% Ethanol, 30% PEG 400, 60% saline for IVPK and as a suspension in 0.5% HPMC, and 0.1% Tween 80 for POPK. Doses used for rat and dog PK were 0.5 mg/kg for Examples 7 and 10 or 2 mg/kg for Example 13 (IVPK). Doses of 5 mg/kg for Examples 7 and 10 were used during POPK. Doses of 10 mg/kg were used for Example 13 during POPK studies. Blood samples were collected at 8 to 13 time points (0, 0.0833, 0.25, 0.283, 0.333, 0.417, 0.75, 1.25, 3.25, 6.25, 12.25, 24.25 h for dog IVPK; 0, 0.25, 0.5, 1, 1.5, 2, 3, 4, 8, 12, 24, 32, 48 h for dog POPK; 0.083, 0.25, 0.5, 1, 2, 4, 7, 24 h for rat IVPK; 0.25, 1, 3, 6, 12, 24, 36, 48 h for rat POPK) after dosing. Blood (rat) or plasma (dog) samples were analysed by LC-MS/MS. PK parameters were estimated by non-compartmental analysis in Phoenix®.

human CYP 2C9 [3] = biological target: T3, human CYP 2C9 (Homo sapiens, UniProt P11712); assay: Time dependent CYP inhibition assay, CYP 2C9; assay type: in vitro ADME
T3 sequence (P11712 whole entry): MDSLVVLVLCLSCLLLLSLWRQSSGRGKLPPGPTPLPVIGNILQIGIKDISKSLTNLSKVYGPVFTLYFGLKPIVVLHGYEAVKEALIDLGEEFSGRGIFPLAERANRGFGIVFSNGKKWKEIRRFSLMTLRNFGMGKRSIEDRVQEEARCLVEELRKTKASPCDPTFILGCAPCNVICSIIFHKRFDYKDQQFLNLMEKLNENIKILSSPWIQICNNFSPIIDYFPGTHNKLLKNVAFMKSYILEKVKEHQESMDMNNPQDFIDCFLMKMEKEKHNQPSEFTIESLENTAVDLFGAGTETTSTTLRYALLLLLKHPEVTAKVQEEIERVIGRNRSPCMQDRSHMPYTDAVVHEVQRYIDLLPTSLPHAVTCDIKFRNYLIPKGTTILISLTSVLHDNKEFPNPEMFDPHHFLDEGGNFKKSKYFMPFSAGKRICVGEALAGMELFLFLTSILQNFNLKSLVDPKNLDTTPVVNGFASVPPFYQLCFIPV

hepatocytes [4] = assay: Metabolic stability assay (hepatocyte Clint), human; assay type: in vitro ADME; details: 1 μM compound
Method: Metabolic Stability Assay (Rat/Human Hepatocyte Clint)
Viability of cryopreserved hepatocytes was determined using trypan blue and the cell concentration was adjusted to 10^6 cells per mL with Leibovitz L-15 Buffer. 1 μM compound (in Acetonitrile; 0.01% DMSO) was incubated with 500 μL of hepatocytes (1 million cells per mL) in a NUNC plate. Reaction was stopped at different time points (0, 5, 15, 30, 60, 90 and 120 min) by addition of 3 volumes of chilled acetonitrile to 100 μL of reaction mixture and centrifuged at 4° C. for 15 min. Supernatants were analyzed using LC-MS/MS for substrate depletion.

human CYP 2C9 [5] = biological target: T3, human CYP 2C9; assay: CYP inhibition assay, CYP 2C9; assay type: in vitro ADME
Method: as §1, §2

hepatocytes [6] = assay: Metabolic stability assay (hepatocyte Clint), dog; assay type: in vitro ADME; details: 1 μM compound
[7] = human liver microsomes, substrate cocktail, read-out: IC50 CYP 2C19
[8] = human liver microsomes, substrate cocktail, read-out: IC50 CYP 2C9

Structure (SMILES) | IC50 (human CYP 1A2) [µM] | IC50 (human CYP 2C19) [µM] | Predicted CLh blood [1] [mL/min/kg] | Oral ‘F’ [2] [%] | ½ life (PO PK) [2] [h] | clearance ([2]; in vivo) [mL/min/kg] | Vd ([2]; in vivo) [L/kg] | IC50 (human CYP 2C9 [3]) [µM] | Hep. Clint (hepatocytes [4]) [μl/min/1E6] | IC50 (human CYP 2C9 [5]) [µM] | Hep. Clint (hepatocytes [6]) [μl/min/1E6] | IC50 (human CYP 2C19; [7]) [µM] | clearance ([2]; blood) [mL/min/kg] | Vd ([2]; blood) [L/kg] | IC50 (human CYP 2C9 [5]; [8]) [µM]
CCc1cc(Nc2ncc(N3CCN[C@H](C)C3)c(Nc3cc(C)n(C)n3)n2)nc(C)c1F [Example 7, (R)—N4-(1,5-dimethyl-1H-pyrazol-3-yl)-N2-(4-ethyl-5-fluoro-6-methylpyridin-2-yl)-5-(3-methylpiperazin-1-yl)pyrimidine-2,4-diamine dihydrochloride] | > 56 | > 30 | 3.30 | 31 | 10 | 26.6 | 12 | > 56 | 2.7 | > 30 |  |  |  |  | 
Cc1nc(Nc2ncc(N3CCN(C)[C@H](C)C3)c(Nc3cc(C)n(C)n3)n2)cc(C2CC2)c1F [Example 13, (R)—N2-(4-cyclopropyl-5-fluoro-6-methylpyridin-2-yl)-N4-(1,5-dimethyl-1H-pyrazol-3-yl)-5-(3,4-dimethylpiperazin-1-yl)pyrimidine-2,4-diamine] | > 56 |  | 4.80 | 80 | 10 |  |  | > 56 | 3.1 |  | 9.3 | > 30 | 9.8 | 7.9 | > 30
Cc1nc(Nc2ncc(N3CCN[C@H](C)C3)c(Nc3cnn(C)n3)n2)cc(C2CC2)c1Cl [Example 10, (R)—N2-(5-chloro-4-cyclopropyl-6-methylpyridin-2-yl)-N4-(2-methyl-2H-1,2,3-triazol-4-yl)-5-(3-methylpiperazin-1-yl)pyrimidine-2,4-diamine dihydochloride] | > 56 |  | 3.10 | 17 | 30 |  |  | > 56 | 1.8 |  | 5.1 | > 30 | 22.5 | 9.7 | > 30
